Assay results taken from US8143259B2, “Cold menthol receptor antagonists” (Janssen Pharmaceutica, NV, priority 2008, dated 2012).
“And” between values parts separate entries of the source, which are not always exact repeats. Identical values can stand only once.

Target: T1, canine TRPM8 (Canis lupus familiaris, UniProt Q1A7N1)
T1 construct: expressed in transfected cells
Assay: In Vitro Canine TRPM8 Functional Assay (Ca2+ fluorescence, icilin activation)
Format: cell-based
Conditions: for % Inh @ 0.5 μM: 0.5 μM compound; for IC50: HEK293 cells stably expressing canine TRPM8, icilin activation, Ca2+ fluorescence; for inhibition at 0.5 µM: HEK293, 0.5 μM compound; for % Inh @ 0.2 μM: 0.2 μM compound; for inhibition at 0.2 µM: HEK293, 0.2 μM compound
Method: The functional activity of compounds of the formula (I) was determined by measuring changes in intracellular calcium concentration using a Ca^2+-sensitive fluorescent dye. The changes in fluorescent signal were monitored by a fluorescence plate reader, either a FLIPR™ (Molecular Devices) or FDSS (Hamamatsu). Increases in intracellular Ca^2+ concentration were readily detected upon activation with icilin.
HEK293 cells stably expressing canine TRPM8 were routinely grown as monolayers in Dulbecco's minimum essential medium supplemented with 10% FBS, 2 mM L-glutamine, 100 units/mL penicillin, 100 ug/mL streptomycin and 400 μg/mL G418. Cells were maintained in 5% CO2 at 37° C. At 24 hrs prior to assay, cells were seeded in black wall, clear-base poly-D-lysine coated 384-well plates (BD Biosciences, NJ, USA) at a density of 5,000 cells per well in culture medium and grown overnight in 5% CO2 at 37° C. On assay day, growth media was removed and cells were loaded with Calcium 3 Dye (Molecular Devices) for 35 min at 37° C., under 5% CO2 and then for 25 min at room temperature and atmosphere. Subsequently, cells were tested for agonist-induced increases in intracellular Ca^2+ levels using FLIPR™ or FDSS. Cells were challenged with compounds of the formula (I) (at varying concentrations) and intracellular Ca^2+ was measured for 5 min prior to the addition of icilin to all wells to achieve a final concentration that produces approximately an 80% maximal response.
Maximal fluorescence intensity (FI) achieved upon addition of icilin was exported from the FLIPR or FDSS software and further analyzed using GraphPad Prism 3.02 (Graph Pad Software Inc., CA, U.S.A.). Basal FI was subtracted prior to normalizing data to percent of maximal response. Curves were generated using the average of quadruplicate wells for each data point, were analyzed using nonlinear regression of either sigmoidal dose response or sigmoidal dose response (variable slope).

[1] = canine TRPM8 HEK293, icilin, 0.5 µM
[2] = canine TRPM8 HEK293, icilin, 0.2 µM

T1 sequence (Q1A7N1 1-1104): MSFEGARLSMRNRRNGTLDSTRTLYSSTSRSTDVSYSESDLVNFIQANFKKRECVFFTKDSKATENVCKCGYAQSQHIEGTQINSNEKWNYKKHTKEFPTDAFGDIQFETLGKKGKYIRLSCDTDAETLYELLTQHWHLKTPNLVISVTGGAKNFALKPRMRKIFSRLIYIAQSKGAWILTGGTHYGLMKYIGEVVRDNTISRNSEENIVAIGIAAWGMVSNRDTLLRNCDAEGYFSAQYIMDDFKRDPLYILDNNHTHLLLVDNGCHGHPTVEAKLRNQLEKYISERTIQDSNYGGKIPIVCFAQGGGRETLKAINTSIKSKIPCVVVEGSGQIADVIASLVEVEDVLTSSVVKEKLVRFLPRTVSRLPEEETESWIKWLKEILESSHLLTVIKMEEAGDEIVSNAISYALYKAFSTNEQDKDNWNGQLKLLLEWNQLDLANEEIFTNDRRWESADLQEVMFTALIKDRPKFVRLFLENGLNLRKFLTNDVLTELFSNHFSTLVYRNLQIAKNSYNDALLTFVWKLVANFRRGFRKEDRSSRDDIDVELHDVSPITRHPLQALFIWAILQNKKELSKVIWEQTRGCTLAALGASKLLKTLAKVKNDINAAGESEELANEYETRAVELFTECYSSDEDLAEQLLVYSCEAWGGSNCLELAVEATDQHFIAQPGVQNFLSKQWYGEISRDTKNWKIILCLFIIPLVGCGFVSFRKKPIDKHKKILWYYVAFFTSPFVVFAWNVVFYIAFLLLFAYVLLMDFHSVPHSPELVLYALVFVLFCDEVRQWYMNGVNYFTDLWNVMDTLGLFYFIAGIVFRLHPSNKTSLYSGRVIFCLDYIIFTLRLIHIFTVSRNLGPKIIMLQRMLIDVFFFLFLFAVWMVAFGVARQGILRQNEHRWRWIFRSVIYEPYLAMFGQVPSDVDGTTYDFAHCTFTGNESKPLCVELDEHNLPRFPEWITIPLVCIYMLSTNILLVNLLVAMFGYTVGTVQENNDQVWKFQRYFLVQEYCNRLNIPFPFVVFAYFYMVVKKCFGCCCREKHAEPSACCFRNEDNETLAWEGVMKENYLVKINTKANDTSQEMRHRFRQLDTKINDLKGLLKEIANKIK

## 1-[2-(2-Chloro-phenyl)-pyrrolidin-1-yl]-3-phenylamino-2-(4-trifluoromethyl-phenyl)-propan-1-one [Cpd 83]
Canine TRPM8 HEK293, icilin
  % Inh @ 0.5 μM: 96%
  IC50: 248 nM

## CC(C)(C)c1ccc(C(Nc2ccccc2)C(=O)N2CCCC2Cc2ccccc2Cl)cc1 (mixture of isomers) [Cpd 6]
1 μM compound, canine TRPM8 HEK293, icilin
  % Inh @ 1 μM: 45.171%

## O=C(C(CNc1ccccc1)c1ccc(C(F)(F)F)cc1)N1CCCC1c1ccccc1 (mixture of isomers) [Cpd 94]
[1]
  % Inh @ 0.5 μM: 98%
  IC50: 162 nM

## O=C(C(CNc1ccccc1)c1ccc(C(F)(F)F)cc1)N1CCCC1c1ccccc1 (mixture of isomers) [Cpd 95]
[1]
  % Inh @ 0.5 μM: 67%

## O=C(C(Nc1ccccc1F)c1ccc(C(F)(F)F)cc1)N1CCCC1c1ccccc1F (mixture of isomers) [Cpd 131]
[1]
  % Inh @ 0.5 μM: 103%
  IC50: 6.9 nM

## O=C(C(Nc1ccccc1F)c1ccc(C(F)(F)F)cc1)N1CCCC1c1ccccc1F (mixture of isomers) [Cpd 153]
[1]
  % Inh @ 0.5 μM: 99.694%
  IC50: 44 nM

## O=C(C(Nc1ccccc1F)c1ccc(Cl)cc1)N1CCC[C@H]1c1ccccc1F (mixture of isomers) [Cpd 156]
Canine TRPM8 HEK293, icilin
  inhibition at 0.5 µM: 92%
  IC50: 9 nM

## Cc1c(C(Cc2ccccc2F)C(=O)N2CCCC2c2ccccc2F)sc2ccccc12 (mixture of isomers) [Cpd 177]
Canine TRPM8 HEK293, icilin
  % Inh @ 0.2 μM: 63%

## O=C(C(Nc1ccccc1F)c1ccc(Br)cc1)N1CCCC1c1ccccc1F (mixture of isomers) [Cpd 180]
Canine TRPM8 HEK293, icilin
  % Inh @ 0.2 μM: 97%
  IC50: 9 nM

## CCOC(=O)c1ccc(C(Nc2ccccc2F)C(=O)N2CCC[C@H]2c2ccccc2F)cc1 (mixture of isomers) [Cpd 182]
Canine TRPM8 HEK293, icilin
  inhibition at 0.2 µM: 102%
  IC50: 13 nM

## O=C(C(Nc1ccccc1F)c1ccc(C(F)(F)F)cc1)N1CCC[C@H]1c1cccc(F)c1 (mixture of isomers) [Cpd 186]
Canine TRPM8 HEK293, icilin
  inhibition at 0.2 µM: 98%
  IC50: 18 nM

## COC(=O)c1cccc(C2CCCN2C(=O)C(Nc2ccccc2F)c2ccc(C(F)(F)F)cc2)c1 (mixture of isomers) [Cpd 221]
Canine TRPM8 HEK293, icilin
  % Inh @ 0.2 μM: 102%
  IC50: 22 nM

## O=C(O)c1cccc(C2CCCN2C(=O)C(Nc2ccccc2F)c2ccc(C(F)(F)F)cc2)c1 (mixture of isomers) [Cpd 223]
Canine TRPM8 HEK293, icilin
  % Inh @ 0.2 μM: 97%
  IC50: 40 nM

## CS(=O)(=O)c1ccc(C(Nc2ccccc2F)C(=O)N2CCCC2c2ccccc2F)cc1 (mixture of isomers) [Cpd 224]
Canine TRPM8 HEK293, icilin
  % Inh @ 0.2 μM: 55%

## O=C(C(Nc1ccccc1F)c1ccc(Br)cc1)N1[C@H](CO)CC[C@@H]1c1ccccc1 (mixture of isomers) [Cpd 238]
  IC50: 112 nM

## O=C(C(Nc1ccccc1F)c1cc2ccccc2s1)N1CCCC1c1ccccc1F (mixture of isomers) [Cpd 245]
Canine TRPM8 HEK293, icilin
  % Inh @ 0.2 μM: 98%
  IC50: 2.6 nM

## CNC(=O)c1ccc(C(Nc2c(F)cccc2F)C(=O)N2CCCC2c2ccccc2F)cc1 (mixture of isomers) [Cpd 265]
Canine TRPM8 HEK293, icilin
  % Inh @ 0.2 μM: 15%

## O=C(C(Cc1c(F)cccc1F)c1ccc(C(F)(F)F)cc1)N1CCCC1c1cccnc1 (mixture of isomers) [Cpd 268]
[2]
  % Inh @ 0.2 μM: 13% and 15%

## O=C(C(Nc1c(F)cccc1F)c1ccc(Cl)cc1)N1CCCC1c1cccnc1 (mixture of isomers) [Cpd 270]
Canine TRPM8 HEK293, icilin
  % Inh @ 0.2 μM: 58%

## O=C(C(c1ccc(C(F)(F)F)cc1)N1CCc2ccccc21)N1CCC[C@H]1c1cccnc1 (mixture of isomers) [Cpd 275]
Canine TRPM8 HEK293, icilin
  inhibition at 0.2 µM: 94%
  IC50: 21 nM

## O=C(C(Nc1ccccc1F)c1ccc2c(c1)CCO2)N1CCC[C@H]1c1ccccc1F (mixture of isomers) [Cpd 286]
Canine TRPM8 HEK293, icilin
  inhibition at 0.2 µM: 96%
  IC50: 14 nM

## O=C(C(Nc1ccccc1F)c1ccc(-c2ccccn2)cc1)N1CCC[C@H]1c1ccccc1F (mixture of isomers) [Cpd 289]
Canine TRPM8 HEK293, icilin
  inhibition at 0.2 µM: 84%
  IC50: 12 nM

## O=C(C(c1ccc(C(F)(F)F)cc1)N1CCCc2ccccc21)N1CCCC1c1ccccc1F (mixture of isomers) [Cpd 292]
Canine TRPM8 HEK293, icilin
  % Inh @ 0.2 μM: 45%

## O=C(C(Nc1ccccc1F)c1ccc(-c2cccnc2)cc1)N1CCCC1c1ccccc1F (mixture of isomers) [Cpd 300]
[2]
  % Inh @ 0.2 μM: 101% and 102%
  IC50: 6 nM and 8 nM

## O=C(C(Nc1ccccc1F)c1ccc(-c2ccccc2)nc1)N1CCC[C@H]1c1ccccc1F (mixture of isomers) [Cpd 306]
[2]
  % Inh @ 0.2 μM: 102%
Canine TRPM8 HEK293, icilin
  inhibition at 0.2 µM: 101%
  IC50: 7 nM

## COC(=O)c1cc(C(Nc2ccccc2F)C(=O)N2CCCC2c2ccccc2F)ccc1Cl (mixture of isomers) [Cpd 309]
Canine TRPM8 HEK293, icilin
  % Inh @ 0.2 μM: 102%
  IC50: 13 nM

## O=C(O)c1cccc(-c2ccc(C(Nc3ccccc3F)C(=O)N3CCCC3c3ccccc3F)cc2)c1 (mixture of isomers) [Cpd 310]
Canine TRPM8 HEK293, icilin
  % Inh @ 0.2 μM: 41%

## O=C(C(Nc1ccccc1F)c1ccc(N2CCCCC2)nc1)N1CCC[C@H]1c1ccccc1F (mixture of isomers) [Cpd 334, 2-(2-Fluoro-phenylamino)-1-[(2S)-2-(2-fluoro-phenyl)-pyrrolidin-1-yl]-2-(3,4,5,6-tetrahydro-2H-[1,2′]bipyridinyl-5′-yl)-ethanone]
Canine TRPM8 HEK293, icilin
  inhibition at 0.2 µM: 101%
  IC50: 5 nM

## COc1ccccc1[C@@H]1CCCN1C(=O)C(Nc1ccccc1F)c1ccc(N2CCCCC2)nc1 (mixture of isomers) [Cpd 335]
Canine TRPM8 HEK293, icilin
  inhibition at 0.2 µM: 101%
  IC50: 26 nM

## O=C(C(c1ccc(C(F)(F)F)cc1)N1CCCc2ccccc21)N1CCCC1c1cccnc1 (mixture of isomers) [Cpd 336]
Canine TRPM8 HEK293, icilin
  % Inh @ 0.2 μM: 43%

## O=C(O)c1ccc(-c2ccc(C(Nc3ccccc3F)C(=O)N3CCCC3c3ccccc3F)cc2)cc1 (mixture of isomers) [Cpd 337]
[2]
  % Inh @ 0.2 μM: 91%
  IC50: 56 nM

## COC(=O)c1cccc([C@@H]2CCCN2C(=O)C(Nc2ccccc2F)c2ccc(C(F)(F)F)cc2)c1 (mixture of isomers) [Cpd 347]
Canine TRPM8 HEK293, icilin
  inhibition at 0.2 µM: 99%
  IC50: 40 nM

## CN(C)c1cccc([C@H]2CCCN2C(=O)C(Nc2ccccc2F)c2ccc(C(F)(F)F)cc2)c1 (mixture of isomers) [Cpd 348]
Canine TRPM8 HEK293, icilin
  inhibition at 0.2 µM: 100%
  IC50: 22 nM

## O=C(O)c1cccc([C@@H]2CCCN2C(=O)C(Nc2ccccc2F)c2ccc(C(F)(F)F)cc2)c1 (mixture of isomers) [Cpd 349, 3-{(1S)-1-[2-(2-Fluoro-phenylamino)-2-(4-trifluoromethyl-phenyl)-acetyl]-pyrrolidin-2-yl}-benzoic acid]
Canine TRPM8 HEK293, icilin
  inhibition at 0.2 µM: 100%
  IC50: 33 nM

## CC(C)(C)c1ccc(C(Nc2ccccc2F)C(=O)N2CCC[C@H]2c2ccccc2F)cn1 (mixture of isomers) [Cpd 355]
Canine TRPM8 HEK293, icilin
  inhibition at 0.2 µM: 100%
  IC50: 5 nM

## O=C(C(Nc1ccccc1F)c1ccc(N2CCOCC2)nc1)N1CCC[C@H]1c1ccccc1F (mixture of isomers) [Cpd 358]
Canine TRPM8 HEK293, icilin
  inhibition at 0.2 µM: 100%
  IC50: 8 nM

## O=C(C(Nc1ccccc1)c1ccccc1Cl)N1CCCC1c1ccccc1Cl (mixture of isomers) [Cpd 362]
Canine TRPM8 HEK293, icilin
  % Inh @ 0.5 μM: 21.91%

## O=C(C(Nc1ccccc1)c1ccc(C(F)(F)F)cc1)N1CCCC1c1ccccc1Cl (racemic) [Cpd 16]
HEK293, 1 μM compound, canine TRPM8 HEK293, icilin
  inhibition at 1 µM: 103%
  IC50: 21.6 nM

## Cc1cccc(C)c1NC(C(=O)N1CCc2ccccc21)c1ccc(C(F)(F)F)cc1 (racemic) [Cpd 35]
Canine TRPM8 HEK293, icilin
  % Inh @ 0.5 μM: 72.417%

## O=C(C(Nc1ccccc1Cl)c1ccc(C(F)(F)F)cc1)N1CCc2ccccc21 (racemic) [Cpd 37]
Canine TRPM8 HEK293, icilin
  % Inh @ 0.5 μM: 49.878%

## O=C(C(Nc1cccc(Cl)c1)c1ccc(C(F)(F)F)cc1)N1CCc2ccccc21 (racemic) [Cpd 38]
Canine TRPM8 HEK293, icilin
  % Inh @ 0.5 μM: 63.009%

## O=C(C(Nc1ccc(Cl)cc1)c1ccc(C(F)(F)F)cc1)N1CCc2ccccc21 (racemic) [Cpd 39]
Canine TRPM8 HEK293, icilin
  % Inh @ 0.5 μM: 73.007%

## O=C(C(CNc1ccccc1)c1ccc(C(F)(F)F)cc1)N1CCc2ccccc21 (racemic) [Cpd 40]
Canine TRPM8 HEK293, icilin
  % Inh @ 0.5 μM: 90.495%
  IC50: 233 nM

## O=C(C(NC1CCCCC1)c1ccc(C(F)(F)F)cc1)N1CCc2ccccc21 (racemic) [Cpd 41]
Canine TRPM8 HEK293, icilin
  % Inh @ 0.5 μM: 70.995%

## O=C(C(Nc1ccccc1F)c1ccc(C(F)(F)F)cc1)N1CCCC1c1ccccc1Cl (racemic) [Cpd 68]
Canine TRPM8 HEK293, icilin
  inhibition at 0.2 µM: 89%
  inhibition at 0.5 µM: 103%
  IC50: 7 nM and 12 nM and 13 nM

## O=C(C(Nc1ccccc1F)c1ccc(C(F)(F)F)cc1)N1CCCC1c1ccccc1 (racemic) [Cpd 69]
Canine TRPM8 HEK293, icilin
  inhibition at 0.5 µM: 102%
  IC50: 5 nM

## COc1ccc(C(Nc2ccccc2)C(=O)N2Cc3ccccc3C2)cc1 (racemic) [Cpd 73]
Canine TRPM8 HEK293, icilin
  % Inh @ 0.5 μM: 33%
